Experimental data: PMC11462456 (Chemical Science, 2024)

Assays:
HEK293 cells = assay: CellTiter-Glo 2D metabolic activity assay, HEK293; assay type: cell-based; conditions: Homo sapiens, 2D culture, 48 h
Description: Figure S5 Homo-degradation effect in Dual-ligand PROTACs. HEK293 cells were treated with all synthesized PROTACs or 2V-alkyne/2P-alkyne for 4 hours. Subsequently, cell lysates were prepared and the protein levels of CRBN or VHL E3 ligase were assessed by Western blotting. (A) Representative image of CRBN or VHL E3 ligase homo-degradation was screened for all PROTACs and commercial single-ligand PROTACs at a concentration of 0.1, 1 and 10 µM, respectively (equivalent volume of DMSO as control group). (B) Representative image of CRBN or VHL E3 ligase homo-degradation was screened for 2P-alkyne or 2V-alkyne at a concentration of 0.1, 1 and 10 µM, respectively (equivalent volume of DMSO as control group). Experiments were performed as three independent replicates.
4.4 Cell viability assay on 2D cells cultures
HEK293, HCT116, A549,andSKOV-3 cells were seeded in 96-well tissue culture plates at a density of 2000-3000 cells per well in 100 µl of growth medium and incubated overnight at 37 °C with 5% CO2. The following day, the cells were treated with various concentrations of compounds or 0.05% DMSO for 48 h. […] Luminescence readout (Gen5 Data Analysis Software v3.08.01) was performed to record luminescence. […]

A549 spheroids = assay: CellTiter-Glo 3D assay on spheroids; assay type: cell-based; conditions: Homo sapiens, 72 h, read-out: EC50, spheroid metabolic activity
Description: 4.5 Cell viability assay on 3D cell cultures
The single cell suspension containing 2.5 ×10^4 cells/ml of A549 or 2 ×10^4 cells/ml of HCT116 were seeded into the U-shaped, 384-well ULA plates (cat. no. MS-9384UZ, S-bio), each well containing 80 μl single cell suspension. The 384-well ULA plates were sealed with Breath-Easy semipermeable tape (cat. no. BEM-1, Diversified Biotech) to prevent evaporation. The spheroids were put into incubator and then cultured at 37 °C and 10% CO2. After 48h of spheroids formation, the spheroids were treated with various concentrations of compounds or 0.05% DMSO. After 72h treatment, each spheroid in the culture medium was pipetted into white micro-96-well plates (cat. no. 236108, ThermoFisher) and an equal volume of Cell Titer-Glo 3D (cat. no. G9683, Promega) reagent was added. Luminescence readouts were the same as described above for 2D culture.

Cc1ncsc1-c1ccc(CNC(=O)C2CC(O)CN2C(=O)C(NC(=O)COCCOCCOCCNC(=O)CC2N=C(c3ccc(Cl)cc3)c3c(sc(C)c3C)-n3c(C)nnc32)C(C)(C)C)cc1 (centres unmarked) [MZ1, reference compound]
EC50 (HEK293 cells): > 10000 nM
EC50 (A549 spheroids): 80 nM
